Values of other authors as cited in patent publication US10227355B2, “Quinoline derivatives and preparation thereof” (COUNCIL OF SCIENTIFIC AND INDUSTRIAL RESEARCH, priority 2015, dated 2019).

System: Plasmodium cynomolgi B
Details: intramuscularly, 7 daily doses of 15 mg/kg; observation period of 120 d; rhesus monkeys

## CCCCc1cc2c(O)c(C(=O)OC)cnc2cc1OCCOc1ccccc1 [WR 197236, 6-butyl-4-hydroxy-3-methoxycarbonyl-7-β-phenoxyethoxyquinoline]
  anti-relapse (curative) activity: curative

## CCCCCCCCCCOc1cc2c(OC(C)=O)c(C(=O)OC)cnc2cc1OC(C)C [WR 194905, 4-acetoxy-6-decyloxy-7-isopropoxy-3-methoxycarbonylquinoline]
  anti-relapse (curative) activity: curative
